Each structure is given as a SMILES string.

In test [1] the target is human orexin-2 receptor (Homo sapiens (Human), UniProt O43614). Kind of test: FLIPR Ca2+ Flux Assay, orexin-2 receptor. Format: cell-based. To be noted: CHO cells expressing the human orexin-2 receptor; agonist 70 pM Ala-6,12 orexin-A; read-out: hOX2R FLIPR IC50. On the procedure:
In a typical experiment the OX1 and OX2 receptor antagonistic activity of the compounds of the present invention was determined in accordance with the following experimental method. For intracellular calcium measurements, Chinese hamster ovary (CHO) cells expressing the rat orexin-1 receptor or the human orexin-2 receptor, are grown in Iscove's modified DMEM containing 2 mM L-glutamine, […], 1% hypoxanthine-thymidine supplement, 100 U/ml penicillin, 100 μg/ml streptomycin and 10% heat-inactivated fetal calf serum (FCS). The cells are seeded at 20,000 cells/well into Becton-Dickinson black 384-well clear bottom sterile plates coated with poly-D-lysine. All reagents were from GIBCO-Invitrogen Corp. The seeded plates are incubated overnight at 37° C. and 5% CO2. Ala-6,12 human orexin-A as the agonist is prepared as a 1 mM stock solution in 1% bovine serum albumin (BSA) and diluted in assay buffer (HBSS containing 20 mM HEPES, 0.1% BSA and 2.5 mM probenecid, pH7.4) for use in the assay at a final concentration of 70 pM. Test compounds are prepared as 10 mM stock solution in DMSO, then diluted in 384-well plates, first in DMSO, then assay buffer. On the day of the assay, cells are washed 3 times with 100 μl assay buffer and then incubated for 60 min (37° C., 5% CO2) in 60 μl assay buffer containing 1 μM Fluo-4 AM ester, 0.02% pluronic acid, and 1% BSA. The dye loading solution is then aspirated and cells are washed 3 times with 100 μl assay buffer. 30 μl of that same buffer is left in each well. Within the Fluorescent Imaging Plate Reader (FLIPR, Molecular Devices), test compounds are added to the plate in a volume of 25 μl, incubated for 5 min and finally 25 μl of agonist is added. Fluorescence is measured for each well at 1 second intervals for 5 minutes and the height of each fluorescence peak is compared to the height of the fluorescence peak induced by 70 pM Ala-6,12 orexin-A with buffer in place of antagonist. […] Alternatively, compound potency can be assessed by a radioligand binding assay (described in Bergman et. al. Bioorg. Med. Chem. Lett. 2008, 18, 1425-1430) in which the inhibition constant (Ki) is determined in membranes prepared from CHO cells expressing either the OX1 or OX2 receptor. The intrinsic orexin receptor antagonist activity of a compound which may be used in the present invention may be determined by these assays.
For orientation: A change in cytosolic calcium serves as a functional read-out for many receptors and channels.

The target of test [2] is hOX1R (Homo sapiens, UniProt O43613). Kind of test: FLIPR Ca2+ Flux Assay, orexin-1 receptor. Format: cell-based. The conditions noted are these: CHO cells expressing orexin-1 receptor; agonist 70 pM Ala-6,12 orexin-A.

Sequence of human orexin-2 receptor (O43614 whole entry): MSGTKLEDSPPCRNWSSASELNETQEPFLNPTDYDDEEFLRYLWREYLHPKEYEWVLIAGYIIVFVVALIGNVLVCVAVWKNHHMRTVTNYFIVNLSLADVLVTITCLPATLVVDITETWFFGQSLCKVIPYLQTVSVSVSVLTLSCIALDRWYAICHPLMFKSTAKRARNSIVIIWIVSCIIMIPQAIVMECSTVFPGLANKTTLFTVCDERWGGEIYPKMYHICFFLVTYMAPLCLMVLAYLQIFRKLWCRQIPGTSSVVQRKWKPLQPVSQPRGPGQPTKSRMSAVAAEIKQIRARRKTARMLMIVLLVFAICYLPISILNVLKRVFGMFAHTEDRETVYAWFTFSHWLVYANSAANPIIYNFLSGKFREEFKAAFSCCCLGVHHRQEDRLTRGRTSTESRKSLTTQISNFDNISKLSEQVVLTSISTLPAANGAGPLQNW

With `CCN(CCc1ccc(C(C)(C)O)cn1)C(=O)c1ccc(F)cc1-n1nccn1` [Example 61, N-ethyl-4-fluoro-N-{2-[5-(1-hydroxy-1-methylethyl)pyridin-2-yl]ethyl}-2-(2H-1,2,3-triazol-2-yl)benzamide], the IC50 – broadly, the point on the concentration scale where inhibition reaches its midpoint – in test [1] is 26 nM; in test [2], above 10000 nM.
With `CCN(CCc1cccc(C(C)(C)O)n1)C(=O)c1cccnc1OC(C)C` [Example 5, N-Ethyl-N-{2-[6-(1-hydroxy-1-methylethyl)pyridin-2-yl]ethyl}-2-(1-methylethoxy)pyridine-3-carboxamide], the IC50 in test [1] is 133 nM; in test [2], above 10000 nM.
In the same order, the values of `CCN(CCc1ccc(C(C)(C)O)cn1)C(=O)c1ccccc1C1CCC1` [Example 62, 2-cyclobutyl-N-ethyl-N-{2-[5-(1-hydroxy-1-methylethyl)pyridin-2-yl]ethyl}benzamide] are 62 nM and above 10000 nM.
Take `CCN(CCc1ccc(C(C)(C)O)cn1)C(=O)c1cccnc1OCC(F)F` [Example 64, 2-(2,2-difluoroethoxy)-N-ethyl-N-{2-[5-(1-hydroxy-1-methylethyl)pyridin-2-yl]ethyl}pyridine-3-carboxamide]: the IC50 is 337 nM in test [1] and above 10000 nM in test [2].
Consider `CCN(CCc1cccc(C(C)(C)O)n1)C(=O)c1cccnc1-c1ccccc1` [Example 14, N-ethyl-N-{2-[6-(1-hydroxy-1-methylethyl)pyridin-2-yl]ethyl}-2-phenylpyridine-3-carboxamide], for which the IC50 in test [1] was 103 nM; in test [2] it was above 10000 nM.
As for `CCN(CCc1ccc(C(C)(C)O)cn1)C(=O)c1ccccc1-n1nccn1` [Example 35, N-Ethyl-N-{2-[5-(1-hydroxy-1-methylethyl)pyridin-2-yl]ethyl}-2-(2H-1,2,3-triazol-2-yl)benzamide], the IC50 was 50 nM in test [1] and above 10000 nM in test [2].
On to `CCN(CCc1cccc(C(C)(C)O)n1)C(=O)c1ccccc1C1CC1` [Example 15, 2-cyclopropyl-N-ethyl-N-{2-[6-(1-hydroxy-1-methylethyl)pyridin-2-yl]ethyl}benzamide], for which the results for the IC50 in test [1] and in test [2] were 43 nM and above 10000 nM, respectively.
In the same order, the values of `CCN(CCc1ncc(C(C)(C)O)cn1)C(=O)c1ccccc1-n1nccn1` [Example 41, N-Ethyl-N-(2-(5-(2-hydroxypropan-2-yl)pyrimidin-2-yl)ethyl)-2-(2H-1,2,3-triazol-2-yl)benzamide] are 86 nM and 3230 nM.
Consider `CCN(CCc1ccc(C(C)(C)O)cn1)C(=O)c1ccccc1C1CC1` [Example 60, 2-cyclopropyl-N-ethyl-N-{2-[5-(1-hydroxy-1-methylethyl)pyridin-2-yl]ethyl}benzamide], for which the results for the half-inhibitory concentration (IC50) in test [1] and in test [2] were 244 nM and above 10000 nM, respectively.
`CCN(CCc1cccc(C(C)(C)O)n1)C(=O)c1ccccc1CC(F)(F)F` [Example 18, N-ethyl-N-(2-(6-(2-hydroxypropan-2-yl)pyridin-2-yl)ethyl)-2-(2,2,2-trifluoroethyl)benzamide] showed an IC50 in test [2] above 10000 nM.
For `CCN(CCc1cccc(C(C)(C)O)n1)C(=O)c1ccc(OC)nc1C1CC1` [Example 19, 2-cyclopropyl-N-ethyl-N-(2-(6-(2-hydroxypropan-2-yl)pyridin-2-yl)ethyl)-6-methoxynicotinamide], the IC50 in test [1] amounted to 16 nM.
Consider `CCN(CCc1cccc(C(C)(C)O)n1)C(=O)c1ccccc1-n1nccn1` [Example 4, N-Ethyl-N-{2-[6-(1-hydroxy-1-methylethyl)pyridin-2-yl]ethyl}-2-(2H-1,2,3-triazol-2-yl)benzamide], for which the half-inhibitory concentration (IC50) in test [1] amounted to 15 nM.
The same measure, in the same setting: in the case of `CCN(CCc1cccc(C(C)(C)O)n1)C(=O)c1ccccc1C1CCC1` [Example 25, 2-cyclobutyl-N-ethyl-N-(2-(6-(2-hydroxypropan-2-yl)pyridin-2-yl)ethyl)benzamide] it was 34 nM.
The molecule `CCCc1ccccc1C(=O)N(CC)CCc1ccc(C(C)(C)O)cn1` [Example 52, N-ethyl-N-{2-[5-(1-hydroxy-1-methylethyl)pyridin-2-yl]ethyl}-2-propylbenzamide] registered an IC50 in test [2] above 10000 nM.

Source of the values: patent publication US10239838B2, “Heteroaryl orexin receptor antagonists” (Merck Sharp & Dohme Corp., priority 2014, dated 2019).
